Data on two molecules can be found in patent US5747336A, “Cloned human genes for muscarinic acetylcholine receptors and cells lines expressing same” (The United States of America as represented by the …, priority 1994, dated 1998).

Experiment [1] has as its target T1, human m2 receptor (Hm2) (Homo sapiens, UniProt P08172).
T1 sequence (P08172 1-466): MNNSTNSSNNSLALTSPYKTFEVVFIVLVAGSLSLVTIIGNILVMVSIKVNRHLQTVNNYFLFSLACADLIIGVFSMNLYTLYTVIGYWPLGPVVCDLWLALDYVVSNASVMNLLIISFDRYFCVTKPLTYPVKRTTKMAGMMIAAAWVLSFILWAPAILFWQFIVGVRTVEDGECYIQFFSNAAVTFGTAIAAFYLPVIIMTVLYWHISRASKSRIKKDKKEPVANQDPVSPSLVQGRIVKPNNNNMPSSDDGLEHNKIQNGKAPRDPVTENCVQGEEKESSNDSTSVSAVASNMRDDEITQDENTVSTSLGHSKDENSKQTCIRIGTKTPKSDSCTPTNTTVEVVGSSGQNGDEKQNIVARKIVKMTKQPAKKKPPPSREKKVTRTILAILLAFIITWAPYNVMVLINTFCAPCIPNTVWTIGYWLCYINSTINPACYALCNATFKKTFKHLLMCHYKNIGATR
Source text: (§1) Data from two to four experiments were independently fit by nonlinear regression to a single mass-action binding site. The average values of the parameters derived from the fits and their standard errors are presented. […] Note Rm1 is the rat m1 receptor, not the human m1 receptor.

The target of the next experiment is T2, human m5 receptor (Hm5) (Homo sapiens, UniProt P08912).
T2 construct: expressed in transfected cells
T2 sequence (P08912 1-532): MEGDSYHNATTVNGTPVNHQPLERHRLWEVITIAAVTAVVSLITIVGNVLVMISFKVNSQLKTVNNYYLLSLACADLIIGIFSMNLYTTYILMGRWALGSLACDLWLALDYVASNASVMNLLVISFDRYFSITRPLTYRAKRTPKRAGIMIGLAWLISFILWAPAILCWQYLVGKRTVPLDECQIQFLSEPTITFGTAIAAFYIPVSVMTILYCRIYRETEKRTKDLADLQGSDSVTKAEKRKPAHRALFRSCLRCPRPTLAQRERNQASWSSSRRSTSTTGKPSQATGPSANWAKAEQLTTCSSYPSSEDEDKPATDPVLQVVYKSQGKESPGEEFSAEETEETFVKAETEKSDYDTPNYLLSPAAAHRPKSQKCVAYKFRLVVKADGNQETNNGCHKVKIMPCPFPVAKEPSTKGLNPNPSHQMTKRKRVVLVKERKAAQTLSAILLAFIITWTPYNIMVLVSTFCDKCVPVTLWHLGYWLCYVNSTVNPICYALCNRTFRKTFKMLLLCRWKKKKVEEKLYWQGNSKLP
Kind of experiment: 3H-NMS binding assay (direct and inhibition), membranes of transfected CHO cells, Hm5. Here is the method: Cells were seeded into six well plates at a density of 10^5 cells/well in growth medium consisting of Minimum Eagle's, Medium supplemented with 10% fetal calf serum (Gibco) and 1000 U each of penicillin G and streptomycin and 4 mM glutamine (Whitaker M.A Bioproducts). Except for the overnight (10-16 hours) transfection (see below) cells were incubated in a humidified incubator at 37° C. and 5% CO2. […] Cells were transferred to a humidified incubator at 35° C. and 3% CO2 and incubated overnight (10-16 hours). […] At the end of selection, transfected cells were harvested and plated at limiting dilution into 96-well plates.
Transfected cells were grown to confluence, washed and scraped into cold binding buffer and homogenized for 30 seconds in a Tekmar Tissumizer (setting 50). Membranes were pelleted at 14,000 g, rehomogenized and the membrane protein determined using a Biorad Protein assay dye reagent. Membrane concentration was adjusted to 1mg protein/ml and stored frozen at -80° C. prior to use.
All membranes, drugs and radioligands were made up in binding buffer which consisted of 25 mM sodium phosphate (pH 7.4) containing 5 mM magnesium chloride. Assays were conducted in 1 ml total volume. Final membrane protein concentrations were 30 ug/ml (m1), 70 ug/ml (m2), 4 μg/ml (m3), 7 μg/ml (m4), and 3 μg/ml (m5). […] Displaceable binding was assessed in the presence of 1 uM atropine sulphate. Binding was terminated by filtration through a Brandel cell harvester onto Whatman GF/C filters.
Data from two to four experiments were independently fit by nonlinear regression to a single mass-action binding site. […] Note Rm1 is the rat m1 receptor, not the human m1 receptor.

Experiment [2] concerns the target T3, human m4 receptor (Hm4) (Homo sapiens, UniProt P08173).
T3 sequence (P08173 1-479): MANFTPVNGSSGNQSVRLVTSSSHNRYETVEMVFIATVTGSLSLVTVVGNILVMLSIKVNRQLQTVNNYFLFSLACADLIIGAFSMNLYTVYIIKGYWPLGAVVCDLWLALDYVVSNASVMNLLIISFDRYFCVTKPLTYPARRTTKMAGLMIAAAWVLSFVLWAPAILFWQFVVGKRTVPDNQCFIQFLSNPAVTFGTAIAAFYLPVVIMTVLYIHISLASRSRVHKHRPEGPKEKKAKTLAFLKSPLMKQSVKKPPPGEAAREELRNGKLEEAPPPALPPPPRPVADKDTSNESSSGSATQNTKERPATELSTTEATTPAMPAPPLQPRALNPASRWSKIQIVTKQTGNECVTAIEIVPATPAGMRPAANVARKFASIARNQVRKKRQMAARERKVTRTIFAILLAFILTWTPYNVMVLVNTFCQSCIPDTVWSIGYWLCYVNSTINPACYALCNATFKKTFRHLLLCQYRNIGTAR
As to the kind of experiment: biochemical.

Experiment [3] concerns the target T3, human m4 receptor (Hm4). The note with it: inhibition of 3H-NMS binding.
In experiment [4] the target is T4, rat m1 receptor (Rm1) (Rattus norvegicus, UniProt P08482).
T4 sequence (P08482 1-460): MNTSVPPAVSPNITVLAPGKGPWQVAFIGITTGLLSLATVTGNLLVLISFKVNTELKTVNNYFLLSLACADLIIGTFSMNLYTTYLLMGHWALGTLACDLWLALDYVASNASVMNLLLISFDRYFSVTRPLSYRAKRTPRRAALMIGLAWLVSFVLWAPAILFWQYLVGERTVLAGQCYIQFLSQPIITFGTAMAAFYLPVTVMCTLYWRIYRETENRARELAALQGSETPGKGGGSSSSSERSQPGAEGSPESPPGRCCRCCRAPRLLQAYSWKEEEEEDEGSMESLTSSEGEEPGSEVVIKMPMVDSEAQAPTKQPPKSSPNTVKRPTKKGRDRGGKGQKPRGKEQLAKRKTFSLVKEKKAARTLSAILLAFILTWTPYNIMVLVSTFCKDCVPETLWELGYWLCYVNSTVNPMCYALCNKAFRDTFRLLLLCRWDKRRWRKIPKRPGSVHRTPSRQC
Kind of experiment: biochemical.
Procedure: (§2) All membranes, drugs and radioligands were made up in binding buffer which consisted of 25 mM sodium phosphate (pH 7.4) containing 5 mM magnesium chloride. Assays were conducted in 1 ml total volume. Final membrane protein concentrations were 30 ug/ml (m1), 70 ug/ml (m2), 4 μg/ml (m3), 7 μg/ml (m4), and 3 μg/ml (m5). […] Displaceable binding was assessed in the presence of 1 uM atropine sulphate. […]

For experiment [5], the target named is T4, rat m1 receptor (Rm1). The note with it: inhibition of 3H-NMS binding.
Procedure: as §2
Experiment [6] addresses T1, human m2 receptor (Hm2). As to the kind of experiment: biochemical.
Source text: as §1
Experiment [7] has as its target T5, human m3 receptor (Hm3) (Homo sapiens, UniProt P20309). Kind of experiment: biochemical.
Procedure: as §2
The target in experiment [8] is T5, human m3 receptor (Hm3).
Procedure: as §2

In general, IC50 refers to the concentration that gives 50% inhibition. A low value points to inhibition by little substance. Usually Ki stands for the equilibrium dissociation constant of an inhibitor or competing ligand from its target.

The structures appear in SMILES notation.

T5 sequence (P20309 whole entry): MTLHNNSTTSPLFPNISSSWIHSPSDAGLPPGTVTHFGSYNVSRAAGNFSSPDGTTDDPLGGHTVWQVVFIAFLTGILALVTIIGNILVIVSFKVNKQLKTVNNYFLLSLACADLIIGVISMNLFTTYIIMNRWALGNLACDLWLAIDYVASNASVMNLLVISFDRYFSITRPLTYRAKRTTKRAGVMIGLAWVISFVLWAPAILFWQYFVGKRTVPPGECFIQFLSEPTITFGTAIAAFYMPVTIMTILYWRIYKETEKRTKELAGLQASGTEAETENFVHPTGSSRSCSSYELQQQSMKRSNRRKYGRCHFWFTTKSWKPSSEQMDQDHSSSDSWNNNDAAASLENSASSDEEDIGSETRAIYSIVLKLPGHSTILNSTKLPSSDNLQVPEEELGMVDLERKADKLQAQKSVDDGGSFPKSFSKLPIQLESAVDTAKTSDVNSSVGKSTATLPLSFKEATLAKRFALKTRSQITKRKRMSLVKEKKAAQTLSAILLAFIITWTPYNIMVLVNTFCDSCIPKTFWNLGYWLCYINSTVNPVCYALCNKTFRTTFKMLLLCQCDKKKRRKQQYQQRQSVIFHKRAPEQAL

For `C[N+]1(C)C2CC(OC(=O)C(CO)c3ccccc3)CC1C1OC12` (single isomer, unassigned) [^3 H-NMS, N-methylscopolamine], the Bmax is 121 ± 63 fmol/mg protein at human m2 receptor (Hm2) [1] (Hm2 in CHO cell membranes, direct binding of 3H-NMS) and 2236 ± 590 fmol/mg protein on human m5 receptor (Hm5) (Hm5 in CHO cell membranes, direct binding of 3H-NMS).
Take `CCN(CC)CC1CCCCN1CC(=O)N1c2ccccc2C(=O)Nc2cccnc21` (stereo not shown) [AF-DX 116]: the half-maximal inhibitory concentration (IC50) on human m4 receptor (Hm4) [2] turned out to be 1800 ± 300 nM; against rat m1 receptor (Rm1) [4], 4300 ± 1200 nM; at human m5 receptor (Hm5), 6800 ± 900 nM; against human m2 receptor (Hm2) [6], 360 ± 230 nM; against human m3 receptor (Hm3) [7], 3100 ± 400 nM. Moreover, the inhibitory constant (Ki) at human m2 receptor (Hm2) [1] (Hm2, inhibition of 3H-NMS binding) came to 260 nM; on human m4 receptor (Hm4) [3] (Hm4), 450 nM; at human m5 receptor (Hm5) (Hm5, inhibition of 3H-NMS binding), 2800 nM; at rat m1 receptor (Rm1) [5] it was 1300 nM; on human m3 receptor (Hm3) [8] it was 820 nM. In addition, the “average Hill number (H)” value on human m4 receptor (Hm4) [3] (m4, fit to single mass action binding site with variable Hill number) turned out to be 0.79±0.03.
